What all share (type): in vivo
The test system of experiment [1] is carrageenin induced edema. The experiment can be described thus: carrageenin test in rats (anti-inflammatory activity). Conditions: Rattus norvegicus, po. An excerpt:
The anti-inflammatory activity of some inventive compounds was evidenced by means of the carrageenin test in rats.

Experiment [2] deals with female Syrian golden hamsters. Description: anti-fertility activity in pregnant female Syrian golden hamsters. The arrangement: key to anti-fertility activity (active according to criteria): active: a reduction of live fetuses in at least 60% of the treated animals and the presence of implantation sites proves the animal to have been pregnant. Conditions: for anti-fertility activity (active according to criteria): 10 mg./kg. s.c. daily for 5 days, days 4-8 of pregnancy, autopsy day 14; for ED50: Mesocricetus auratus, sc, Table I, 5,6-dihydro compounds, hamsters, read-out: ED50 (dose showing 100% effectiveness in 50% of the treated animals). The procedure:
Representative experiments for assessing anti-fertility activity are carried out with female Syrian golden hamsters weighing 100 to 130 g. The animals are mated and the presence of sperm in the vagina is taken as evidence of mating. The day sperm is detected is considered day one of pregnancy, since in our laboratories and those of other investigators 90 to 100% of animals that mate as evidenced by vaginal sperm are pregnant. Pregnancy is later confirmed at the time of autopsy by presence of fetuses or implantation sites in the uterus. Even if an animal aborts the fetus, implantation scars still remain as evidence that the animal had been pregnant. Test compounds dissolved or suspended in sesame oil are administered subcutaneously in doses of 10 mg./kg. daily for 5 days beginning on day 4 of pregnancy (days 4-8). The animals are autopsied on day 14 of pregnancy and the uteri are examined for evidence of pregnancy (implantation sites, fetal resorptions or live fetuses), hemorrage, and evidence of abnormalities of the uterus, placenta or fetuses. A compound is considered to be active if there is a reduction of live fetuses in at least 60% of the treated animals and the presence of implantation sites proves the animal to have been pregnant. […] The compounds are then studied for dose-activity relationship and toxicity or other biological activities. Compounds that show 100% effectiveness (absence of live fetuses in 100% of animals) with minimal side effects or toxicity are studied in depth.
The ED50 values identify the dose levels which show 100% effectiveness (defined as above) in 50% of the treated animals.

A further experiment has as its system female beagle dogs. The experiment can be described thus: anti-fertility activity in pregnant female beagle dogs. Conditions: Canis lupus familiaris, sc; single subcutaneous dose on 20th day of pregnancy, opened on 35th day; read-out: Minimal effective doses (100% effectiveness, absence of live fetuses in 100% of the animals). The source says: In performing experiments with dogs, female beagle dogs weighing approximately 10 kg. are mated and on the 20th day of pregnancy the animals are given single subcutaneous doses of the compounds that were active in both the rat and the hamster. On the 35th day of pregnancy, the animals are surgically opened and the uteri are examined for presence of fetuses, placental tissue etc. Following Table III reports the minimal doses of representative compounds showing a 100% effectiveness (absence of live fetuses in 100% of the animals).

Turning to `Sc1nc2n(n1)CCc1ccccc1-2` [Example 38, 2-Sulfhydryl-5,6-dihydro-s-triazolo[5,1-a]isoquinoline], the inhibition at 50 mg/kg in experiment [1] (50 mg./kg. p.o.) was about 35%.

On to `COc1cccc(-c2nc3n(n2)CCc2ccccc2-3)c1` [Example 1, 2-(m-Methoxyphenyl)-5,6-dihydro-s-triazolo[5,1-a]isoquinoline], for which, in experiment [2], the “anti-fertility activity (active according to criteria)” value (“anti-fertility activity” below) was “active” and the ED50 was 0.1 mg/kg. The minimal effective dose in the experiment with female beagle dogs turned out to be 12.5 mg/kg.

`C=CCOc1cccc(-c2nc3n(n2)CCc2ccccc2-3)c1` [Example 24, 2-(m-allyloxyphenyl)-5,6-dihydro-s-triazolo[5,1-a]isoquinoline]: in experiment [2], the “anti-fertility activity” value is “active” and the ED50 came out at 0.18 mg/kg. In the experiment on female beagle dogs, the minimal effective dose was determined as 6.25 mg/kg.

In experiment [1] (100 mg./kg. p.o.), `NC(=O)Nc1nc2n(n1)CCc1ccccc1-2` [Example 54, 2-Ureido-5,6-dihydro-s-triazolo[5,1-a]isoquinoline] showed an inhibition at 100 mg/kg of about 35%.

On to `CCOc1cccc(-c2nc3n(n2)CCc2ccccc2-3)c1` [Example 13, 2-(m-ethoxyphenyl)-5,6-dihydro-s-triazolo[5,1-a]isoquinoline], for which, in experiment [2], the “anti-fertility activity” value is given as “active” and the ED50 was 0.03 mg/kg. Besides, in the experiment on female beagle dogs, the minimal effective dose was determined as 6.25 mg/kg.

As to `CCCOc1cccc(-c2nc3n(n2)CCc2ccccc2-3)c1` [Example 14, 2-(m-propoxyphenyl)-5,6-dihydro-s-triazolo[5,1-a]isoquinoline], in experiment [2], the “anti-fertility activity” value is listed as “active” and the ED50 was 0.11 mg/kg. Further, in the experiment on female beagle dogs, the minimal effective dose was determined as 6.25 mg/kg.
